Data: patent publication US7341751B2, “Eggplant extract for medical treatments” (priority 2006, dated 2008)

Experiments:
[1] = tested on: TNF-alpha secretion by peripheral blood mononuclear cells (PBMC); assay: LPS-stimulated PBMC cytokine secretion, TNF-alpha ELISA; assay type: cell-based, human
Description: (§1) FIG. 1 and the following two tables show data from an in vitro experiment using PBMC from a healthy donor who provided peripheral blood mononuclear cells (PBMC) for this experiment. (PBMC are isolated from whole blood by gradient centrifugation. PBMC contain mostly lymphocytes and monocytes (neutrophils having been excluded by the separation procedure). They are commonly used to assess immune functions in vitro.) The PBMC were stimulated with LPS. (LPS is lipopolysaccharide, a component of bacterial cell wall, which is commonly used as an antigen non-specific stimulator (also called a mitogen) of immune cell proliferation, synthesis and secretion. It is commonly used in vitro to simulate an immune response in vivo. Chemicals which block the LPS stimulated synthesis or secretion of pro-inflammatory mediators by immune cells (primarily lymphocytes and monocytes) may have similar activity in vivo and therefore may have anti-inflammatory activity in vivo.) After 24 to 48 hours, the supernatant from each culture well was collected and assayed for the pro-inflammatory mediator noted (tumer necrosis factor (TNF)-alpha or IL-1-beta using a modified enzyme linked immunosorbent assay (ELISA). […]

[2] = tested on: IL-1-beta secretion by peripheral blood mononuclear cells (PBMC); assay: LPS-stimulated PBMC cytokine secretion, IL-1-beta ELISA; assay type: cell-based, human
Description: as §1

[3] = eggplant extract plus iron at 0.25%, percent of maximal secretion

SMILES: C[C@]12CCC(=O)C=C1CC[C@@H]1[C@@H]2[C@@H](O)C[C@@]2(C)[C@H]1CC[C@]2(O)C(=O)CO [Hydrocortisone]
- Mean TNF-alpha release ([1]; eggplant extract + iron at 0.25%, supernatant after 24 to 48 hours, +LPS no drug 11753.0): 298.8 picograms of cytokine per 1x10^6 cells
- Mean TNF-alpha released, percent of +LPS (no drug) [1, 3]: 3%
- Mean IL-1 beta release ([2]; eggplant extract + iron at 0.25%, supernatant after 24 to 48 hours, +LPS no drug 3507.8): 1757.8 picograms of cytokine per 1x10^6 cells
- Mean IL-1-beta released, percent of +LPS (no drug) [2, 3]: 50%
